Each structure is given as a SMILES string. Bounds are passed on as bounds.

For data set [1] the following is noted: relative to 2,3,7,8-TCDD = 1.0; cited from earlier work.
The subject of data set [2] is antibody in serum immobilized on goat anti-rabbit second antibody coated tubes. The experiment in a line: Enzyme immunoassay (EIA) with HRP competitor or Hapten I conjugates, Aroclor 1248 analyte (Method D). The class given is binding. The conditions noted are these: for Assay Response (I50): assay solution concentration of Aroclor 1248 producing 50% reduction in assay control signal, HRP conjugate of the listed competitor; for Relative Response: improvement in I50 sensitivity compared to homologous (Hapten I) based assay. Here is the method:
Serum stored at -20° C. was diluted 1,000-40,000 fold with PBS which contained 0.1% Tween-20. This solution was dispensed (500 μl) into goat anti-rabbit second antibody coated tubes (GAR Tubes commercially available from Millipore Corp., Bedford, Mass.) and incubated at room temperature overnight. The antisera solution was decanted from the tubes and the tubes were washed 3 times with distilled water. Non-specific sites in the tubes were blocked with 600 μl of a BSA blocking buffer (EIA Blocking Buffer commercially available from Millipore Corp., Bedford, Mass.) and incubated for 2 hours at room temperature or overnight at 4° C. The blocking buffer was decanted and the tubes allowed to dry under ambient room conditions for 2 hours or overnight. The assay was performed by adding 500 μl of assay diluent (1% methanol (v/v) and 0.005% Tween-20 (w/v) in distilled water) to the required number of tubes followed by 10 μl of a methanol solution which contained 0-50 ppm of Aroclor 1248. After a 5 minute incubation at room temperature, the solution was decanted and the tubes rinsed 3-4 times with tap water. The horseradish peroxidase-(HRP) competitor conjugate or Hapten I conjugates were diluted 100-100,000 fold from 2-5 mg/ml stock solutions in PBS with conjugate diluent (Enzyme Conjugate Diluent commercially available from Millipore Corp., Bedford, Mass.). Enzyme-competitor conjugate was added in 200 μl and the tubes were incubated at room temperature for 5 minutes. The conjugate solution was decanted and the tubes rinsed 3-4 times with tap water. Enzyme substrate solution (500 μl, KPL No. 50-76-04 commercially available from KPL Laboratories, Gaithersburg, Md.) was added and the tubes were incubated at room temperature for 3-15 minutes. The enzyme reaction was stopped with the addition of 500 μl of 1N HCl. The OD of the solution was determined at 450 nm and the I50 values were determined using a correlation of Log (Aroclor 1248 Concentration in the assay solution in parts per billion=ppb) versus B/Bo ratio where B=Sample Absorbance and Bo=Absorbance of the Blank Sample.
The competitors and Hapten I were conjugated to the enzyme, amino modified Horseradish Peroxidase (HRP) (horseradish peroxidase commercially available from Sigma Chemical Co. (No. P-6782), St. Louis, Mo.; amino modified per ref R. Hsiao and H. Royer, Archives Biochem. Biophysics, 198, 379-385 (1979) to give 6-24 free amines), using the carbodiimide mediated carboxyl activation procedure described for Hapten I in Example 5.
EIA analysis of Aroclor 1248 (Method D) was performed using horseradish peroxidase (HRP) Conjugates of the competitors illustrated in FIG. 4.

Data set [3] deals with Hapten VII sera (polyclonal antibodies). The experiment in a line: Sera direct EIA with Hapten VII sera and competitor enzyme conjugate. In kind it is binding, mice. To be noted: for Assay sensitivity versus Hapten VII enzyme conjugate based assay: in words, Table 6. Here is the method: The competitors A-E and Hapten VII were conjugated to the enzyme, amino modified Horseradish Peroxidase (HRP) (horseradish peroxidase commercially available from Sigma Chemical Co. (No. P-6782), St. Louis, Mo.; amino modified per R. Hsiao and H. Royer, Archives Biochem. Biophys., 198, 379-385 (1979) to give 6-24 free amines), using the carbodiimide mediated carboxyl activation procedure described for Hapten VII in Example 24. Hapten and competitor load were determined by UV/Vis spectroscopy, also as described for Hapten VII.
The direct EIA (immoblized antibody and competitor enzyme conjugate) was performed as follows. Serum or monoclonal antibody supernatant stored at -20° C. was diluted 1,000-40,000 fold with PBS which contained 0.1% Tween-20. This solution was dispensed (500 ul) into donkey anti-mouse second antibody coated tubes (DAM Tubes commercially available from Millipore Corp., Bedford, Mass.) and incubated at room temperature overnight. The antisera solution was decanted from the tubes and the tubes washed 3 times with distilled water. Non-specific sites in the tubes were blocked with 600 ul of BSA blocking buffer (EIA Blocking Buffer commercially available from Millipore Corp., Bedford, Mass.) and incubated for 2 hours at room temperature or overnight at 4° C. The blocking buffer was decanted and the tubes allowed to dry under ambient room conditions for at least 2 hours. The assay was performed by adding 500 ul of assay diluent (1% methanol (v/v) and 0.005% Tween-20 (w/v) in distilled water) to the required number of tubes followed by 10 ul of a methanol solution of the analyte (PCB congener). After a 5 minute incubation at room temperature, the solution was decanted and the tubes rinsed 3-4 times with tap water. The horseradish peroxidase competitor or Hapten VII conjugates were diluted 1,000-60,000 fold from 2-5 mg/ml stock solutions in PBS with conjugate diluent (Enzyme Conjugate Diluent commercially available from Millipore Corp., Bedford, Mass.). The enzyme conjugate (200 ul) was added to the tubes followed by a 5 minute incubation at room temperature. The conjugate solution was decanted and the tubes rinsed 3-4 times with tap water. Enzyme substrate solution (500 ul, KPL No. 50-76-04 commercially available from KPL Laboratories, Gaithersburg, Md.) was added and the tubes were incubated at room temperature for 5-15 minutes. The enzyme reaction was stopped with the addition of 500 ul of 1N HCl. The OD of the solution was determined at 450 nm. The data was plotted using Log (Congener Concentration) versus B/Bo (B=Sample Absorbance, Bo=Sample Blank Absorbance).
The direct EIA (Method 19) was used to evaluate sera samples taken on day 120.

Where [4] appears, read: Table 6, I50 of analyte 3,3',4,4'-tetrachlorobiphenyl with the listed competitor, Hapten VII sera.
[5] abbreviates: Table 7, Hapten VII sera and Competitor D direct EIA.

For `Clc1ccc(-c2cc(Cl)c(Cl)c(Cl)c2)cc1` [BZ No. 81, 3,4,4',5-tetra], in data set [1], the TEF is on record as 0.01.
`Clc1ccc(Cl)c(-c2ccccc2Cl)c1` [2,2',5-trichloro-]: in data set [1], the TEF entry is “less than 0.00001”.
Turning to `Clc1ccc(-c2ccccc2Cl)cc1` [2,4'-dichloro-], the TEF entry in data set [1] is on record as “less than 0.00001”.
For the compound `O=C(O)CCCOc1ccc(Cl)c(Cl)c1` [Competitor 16], in data set [2], the “Assay Response (I50)” value was determined as 31 ppb and the “Relative Response” value came out at 18 fold.
In data set [3] (setting [4]), `O=C(O)CCCC(=O)c1ccc(Cl)c(Cl)c1` [Competitor D] showed an I50 of 3 ppb. Moreover, the “Assay sensitivity versus Hapten VII enzyme conjugate based assay” value in data set [3] is “significantly more sensitive”.
For `Clc1ccc(Cl)c(-c2cc(Cl)ccc2Cl)c1` [2,2',5,5'-tetrachloro], the I50 in data set [3] (setting [5]) was > 20,000 ppb. In addition, in data set [1], the TEF entry is recorded as “less than 0.00001”.
In the case of `O=C(O)CCCSc1cc(Cl)ccc1Cl` [Competitor 17], in data set [2], the “Assay Response (I50)” value is 33 ppb and the “Relative Response” value came out at 18 fold.
The corresponding values for `O=C(O)CCCCc1cc(Cl)ccc1Cl` [Competitor 11] are 18 ppb and 32 fold.
In the case of `Clc1ccc(-c2cc(Cl)c(Cl)cc2Cl)c(Cl)c1` [2,2',4,4',5-pentachloro-], the TEF result in data set [1] is given as “less than 0.00001”.
For `O=C(O)C=Cc1ccc(Cl)c(Cl)c1` [Competitor 14], in data set [2], the “Assay Response (I50)” value was determined as 64 ppb and the “Relative Response” value is reported as 9 fold.
Turning to `Clc1cc(Cl)c(-c2cc(Cl)c(Cl)c(Cl)c2)cc1Cl` [BZ No. 167, 2,3',4,4',5,5-hexa], the TEF in data set [1] was 0.001.
On to `O=C(O)CCCCCOc1ccc(-c2ccc(Cl)c(Cl)c2)cc1Cl` [Hapten VII, 6-(3,3',4'-Trichlorobiphenyloxy)-4-yl hexanoic acid], for which the I50 in data set [3] (setting [4]) is 30-40 ppb.
As to `Clc1ccc(-c2ccc(Cl)c(Cl)c2Cl)cc1Cl` [BZ No. 105, 2,3,3',4,4'-penta], the TEF in data set [1] is listed as 0.001.
Regarding `Clc1ccc(-c2cc(Cl)c(Cl)c(Cl)c2Cl)cc1` [BZ No. 114, 2,3,4,4',5-penta], in data set [1], the TEF is recorded as 0.0001.
In the case of `Clc1cc2c(cc1Cl)Oc1cc(Cl)c(Cl)cc1O2` [2,3,7,8-TCDD, 2,3,7,8-tetrachlorodibenzo-p-dioxin], the TEF in data set [1] is on record as 1.0.
On to `Clc1ccc(-c2cc(Cl)c(Cl)c(Cl)c2)c(Cl)c1` [BZ No. 123, 2,3',4,4',5'-penta], for which, in data set [1], the TEF is given as 0.001.
As for `Clc1cc(-c2cc(Cl)c(Cl)c(Cl)c2Cl)cc(Cl)c1Cl` [BZ No. 189, 2,3,3',4,4',5,5'-hepta], in data set [1], the TEF is listed as 0.001.
For `Clc1ccc(-c2cc(Cl)c(Cl)c(Cl)c2Cl)cc1Cl` [BZ No. 156, 2,3,3',4,4',5-hexa], in data set [1], the TEF was 0.001.
As to `Clc1ccc(-c2cc(Cl)c(Cl)cc2Cl)cc1Cl` [BZ No. 118, 2,3',4,4',5-penta], in data set [1], the TEF is on record as 0.00.
As to `O=C(O)CCCC(=O)c1ccc(Cl)c(Cl)c1` [Competitor 12], in data set [2], the “Assay Response (I50)” value was 23 ppb and the “Relative Response” value was 24 fold.
Consider `O=C(O)CCc1ccc(Cl)c(Cl)c1` [Competitor 9], for which, in data set [2], the “Assay Response (I50)” value is 47 ppb and the “Relative Response” value came out at 12 fold.
For `O=C(O)CCCOc1ccc(Cl)cc1Cl` [Competitor 15], in that order: 49 ppb and 12 fold.
As for `O=C(O)CCCCCOc1ccc(-c2cc(Cl)c(Cl)cc2Cl)c(Cl)c1` [Hapten I, 6-(2,2',4',5'-Tetrachlorobiphenyloxy)-4-yl hexanoic acid], in data set [2], the “Assay Response (I50)” value worked out at 570 ppb.
Regarding `O=C(O)CCCOc1ccc(Cl)c(Cl)c1` [Competitor B], the I50 in data set [3] (setting [4]) is on record as 3.5 ppb. The “Assay sensitivity versus Hapten VII enzyme conjugate based assay” value in data set [3] is given as “significantly more sensitive”.
In the case of `Clc1cc(-c2ccc(Cl)c(Cl)c2Cl)cc(Cl)c1Cl` [BZ No. 157, 2,3,3',4,4',5-hexa], the TEF in data set [1] was 0.00002.
As for `Clc1ccc(-c2ccc(Cl)cc2Cl)cc1` [2,4,4',trichloro-], the TEF result in data set [1] is listed as “less than 0.00001”.
As to `O=C(O)CCCC(=O)Nc1ccc(Cl)c(Cl)c1` [Competitor 13], in data set [2], the “Assay Response (I50)” value stood at 2000 ppb and the “Relative Response” value was below 1 fold.
`O=C(O)CCCSc1cc(Cl)ccc1Cl` [Competitor C]: the I50 in data set [3] (setting [4]) amounted to 1.5 ppb. Also, the “Assay sensitivity versus Hapten VII enzyme conjugate based assay” value in data set [3] is recorded as “significantly more sensitive”.
`Clc1ccc(-c2ccc(Cl)cc2)cc1` [4,4'-dichloro]: in data set [3] (setting [5]), the I50 is 4,300 ppb.
Turning to `Clc1cc(-c2cc(Cl)c(Cl)c(Cl)c2)cc(Cl)c1Cl` [BZ No. 169, 3,3',4,4',5,5-hexa], the TEF in data set [1] was 0.05.

These data come from patent US6204005A, “Immunoassay for toxic congeners of polychlorinated biphenyls” (priority 1995, dated 2001).
